Experimental data taken from patent EP0015584A2, “Nucleotides, methods for their preparation and medicaments” (Gauri, Kailash Kumar, Dr. Prof., priority 1979, dated 1980).

Tests used:
[1] = system: Herpes-Simplex-Viren; assay: Inhibition of herpes simplex virus replication in tissue cultures of chick embryo fibroblasts; assay type: cell-based; details: Gewebekulturen von Hühnerembryofibroblasten; Konzentration 10 µg/ml
Experimental: Dem «-XDU-Monophosphat kommt eine ungewöhnliche Eigenschaft zu, die vom Fachmann nicht vorhersehbar war. Es ist nämlich in der Lage, die Vermehrung von Herpes-Simplex-Viren zu hemmen. In Gewebekulturen von HUhnerembryofibroblasten hemmt α-ÄDU-MP in einer Konzentration von 10 µg/ml deutlich die Virusvermehrung. Unter gleicher Bedingung ist α-ÄDU selbst ohne Wirkung.

[2] = system: DNS; assay: Incorporation into DNA (stated property, no method described); details: acts virostatically; no test described
[3] = system: resistente Herpesviren; assay: Local treatment of herpes keratitis produced with resistant strains; assay type: in vivo; details: Kaninchen, lokal, bis zu 7 mal täglich, bis zu 11 Tage; JDU-MP 0,1 bis 1 %, ÄDU-MP 0,1 bis 8 %, TFT-MP 0,1 bis 2 %, ARA-A-MP 0,2 bis 2 %, Acycloguanosin-Monophosphat 0,5 bis 5 %
Experimental: Man züchtet Herpes-Viren in Gewebekulturen von menschlichen Fibroblastzellen über 1 bis 5 Passagen in Gegenwart von Nukleosiden, wie beispielsweise ÄDU (Äthyldesoxyuridin), Konzentration: 20 µg/ml, TFT (Trifluorthymidin) Konzentration 5 bis 10 µg/ml, ARA-A-MP (Arabinofuranosyladenin-Monophosphat),Konzentration 20 µg/ml, Acycloguanosin (ACG), Konzentration 5 bis 30 µg/ml, wobei der Saatvirus auf die Cornea der Tiere (Hamster, Kaninchen) durch Aufträufeln übertragen wird. Zwei Stunden nach der Übertragung erfolgt die Behandlung der Cornea lokal mit den entsprechenden Nukleosiden in den oben angegebenen Konzentrationen. Dabei zeigt sich, daß die Viren für die Nukleoside resistent werden. Die Bewertung der Infektion erfolgt durch Anfärben der Hornhaut mit Fluorescin-Na-Lösung (1 %) und anschließende Farbphotodokumentation.
Die Behandlung der Herpes-Keratitis bei Kaninchen, erzeugt mit den resistenten Stämmen, erfolgt lokal mit folgenden Wirkstoffen: JDU-MP (Joddesoxyuridin-Monophosphat), Konzentration 0,1 bis 1 %, ÄDU-MP (Äthyldesoxyuridin-Monophosphat), Konzentration: 0,1 bis 8 %, TFT-MP (Trifluor- thymidin-Monophosphat), Konzentration: 0,1 bis 2 %, ARA-A-MP (Arabinofuranosyladenin-Monophosphat), Konzentration: 0,2 bis 2 %, Acycloguanosin-Monophosphat, Konzentration: 0,5 bis 5 %, bis zu 7 mal täglich für die Dauer von bis zu 11 Tagen.

SMILES	Hemmung der Virusvermehrung [1]	Einbau in die DNS [2]	Bekämpfung der durch resistente Herpesviren verursachten Infektion (Herpes-Keratitis) [3]
CCc1cn([C@@H]2C[C@H](O)[C@@H](COP(=O)(O)O)O2)c(=O)[nH]c1=O [α-ÄDU-MP, α-5-Äthyl-2'-deoxyuridin-5'-monophosphat]	deutlich	ohne in die DNS eingebaut zu werden	
Nc1nc2c(ncn2COCCOP(=O)(O)O)c(=O)[nH]1 [Acycloguanosin-Monophosphat]			wirksam bekämpfen
O=c1[nH]c(=O)n([C@H]2C[C@H](O)[C@@H](COP(=O)(O)O)O2)cc1C(F)(F)F [TFT-MP, Trifluor- thymidin-Monophosphat]			wirksam bekämpfen
CCc1cn([C@H]2C[C@H](O)[C@@H](COP(=O)(O)O)O2)c(=O)[nH]c1=O [ÄDU-MP, Äthyldesoxyuridin-Monophosphat]			wirksam bekämpfen
CCc1cn([C@@H]2C[C@H](O)[C@@H](CO)O2)c(=O)[nH]c1=O [α-ÄDU, α-5-Äthyl-2'-deoxyuridin, reference compound]	ohne Wirkung		
O=c1[nH]c(=O)n([C@H]2C[C@H](O)[C@@H](COP(=O)(O)O)O2)cc1I [JDU-MP, Joddesoxyuridin-Monophosphat]			wirksam bekämpfen
